# Results as given in publication PMC12386283, “Elucidating the Complex Structural and Molecular Mechanisms Driving P-Glycoprotein-Mediated Transport of Cardiac Glycosides” (International Journal of Molecular Sciences, 2025).
# Key:
# [1] = biological target: T1, P-glycoprotein (wild-type mouse Pgp, MDR3) (Mus musculus, UniProt P21447); test: in vitro; conditions: mouse, pH 7.4
# Method: Overexpression of wild-type mouse Pgp (MDR3) was achieved by using genetically engineered strains of Pichia pastoris with a 6X histidine tag. The cells were cultured in glycerol media, and methanol was used to induce the overexpression of Pgp at the Bioexpression and Fermentation Facility (BFF), University of Georgia, Athens, GA, USA. A repeated cycle of freezing using liquid nitrogen, blending, and thawing was used to lyse the Pgp-expressing P. pastoris cells. The protein was purified using affinity chromatography with nickel-nitrilotriacetic acid (Ni-NTA) resin (Thermo Fisher Scientific, Waltham, MA, USA). DDM was used to solubilize the protein, and the solution was concentrated using Amicon Ultra-15 100 kDa cut-off filters (EMD Millipore, Billerica, MA, USA). […] The purified DDM-solubilized Pgp was aliquoted and stored at −80 °C for future analysis.
# Pgp was reconstituted into liposomes as previously described. Briefly, liposomes comprising 80% (w/v) Avanti Escherichia coli total lipid extract and 20% (w/v) cholesterol were dissolved in chloroform to achieve a final concentration of 10 mg mL^−1, and the volume was adjusted to 10 mL. […] The solution was subjected to ten cycles of freeze–thaw using liquid nitrogen and a water bath (67 °C), resulting in the formation of liposomes with varying sizes, and extruded eleven times in a LIPEX extruder (Northern Lipids, Burnaby, BC, Canada) to produce identical-sized liposomes, using a 400 nm cut-off filter.
# (§1) Approximately 40 µL of DDM-solubilized Pgp was dialyzed for two hours against HEPES buffer (20 mM HEPES, 100 mM NaCl, 5 mM MgCl2, 2 mM DTT, pH 7.4) to remove any remnants of the detergent, DDM. The dialyzed protein was mixed with 4 mg mL^−1 of the extruded liposomes and incubated on ice for at least one hour to allow Pgp to integrate into the liposomes. To remove any additional detergent and further facilitate Pgp integration into the liposome, the solution was dialyzed for a second time for two hours in HEPES buffer to form proteoliposomes, and the concentration of Pgp reconstituted in liposomes was determined using the Bio-Rad DC Protein assay. Finally, the solution was aliquoted and stored at −80 °C for future use.
# The Chifflet method is a colorimetric method that measures the amount of free inorganic phosphate (Pi) through the formation of ammonium molybdate and Pi complex, which produces a strong absorbance at 850 nm. The absorbance was measured on a 96-well plate using a CLARIOstar microplate reader (BMG Labtech, Ortenberg, Germany). […] The final concentrations of the proteoliposome and ATP were maintained at 50 nM and 3.2 mM, respectively. Orthovanadate was used as a control and run in parallel to the samples. Finally, the kinetic curves for ATPase activity were fit to a modified Michaelis-Menten equation (Equation (1)). Igor 6.2 Pro software (Wavemetrics, Tigard, OR, USA) was used for data analysis.(1) V=VmaxS/Km+S+Vbasal where V = Rate of ATP hydrolysis; Vmax = Maximum velocity of ATP hydrolysis; [S] = Substrate concentration; Km = Michaelis–Menten constant; and Vbasal = basal ATPase activity.
# [2] = system: Pgp; conditions: MDCK cell lines overexpressing Pgp; cited from earlier work
# [3] = biological target: T1, P-glycoprotein (wild-type mouse Pgp, MDR3); test: in vitro; conditions: mouse, pH 7.4; remark: listed apart in the source
# Method: Overexpression of wild-type mouse Pgp (MDR3) was achieved by using genetically engineered strains of Pichia pastoris with a 6X histidine tag. The cells were cultured in glycerol media, and methanol was used to induce the overexpression of Pgp at the Bioexpression and Fermentation Facility (BFF), University of Georgia, Athens, GA, USA. A repeated cycle of freezing using liquid nitrogen, blending, and thawing was used to lyse the Pgp-expressing P. pastoris cells. The protein was purified using affinity chromatography with nickel-nitrilotriacetic acid (Ni-NTA) resin (Thermo Fisher Scientific, Waltham, MA, USA). DDM was used to solubilize the protein, and the solution was concentrated using Amicon Ultra-15 100 kDa cut-off filters (EMD Millipore, Billerica, MA, USA). The concentration of purified protein was measured at 280 nm using a calculated extinction coefficient of 1.28 per mg mL^−1 on a Nanodrop (DeNovix, Wilmington, DE, USA). […] The purified DDM-solubilized Pgp was aliquoted and stored at −80 °C for future analysis.
# as §1
# The intrinsic tryptophan residues in the protein can be selectively excited and emitted at 295 nm and 330 nm wavelengths, respectively. The binding of the drug to the protein can alter the spatial arrangement encountered by the tryptophan residue(s) and thereby regulate the fluorescence intensity of the protein [52]. […] Proteoliposomes diluted to 1 µM in Chifflet buffer containing 2 mM DTT were titrated against varying concentrations of drugs. The intrinsic protein fluorescence was measured at 330 nm upon excitation at 295 nm using an Olis DM 45 spectrophotometer (Olis Corporation, Bogart, GA, USA). To nullify the effect of Rayleigh bands on the observed spectra, a 10 nm band-pass filter was inserted on the excitation and emission paths of the spectrophotometer. The drug-induced quenching of intrinsic Pgp fluorescence was corrected (Fcorrected) for factors such as dilution, background fluorescence, and inner filter effects using the equation mentioned below (Equation (2)).(2) Fcorrected=F−B10^εexbex+εembemQ/2 where Fcorrected = Drug-induced quenching of intrinsic Pgp fluorescence; F = Emitted intrinsic Pgp fluorescence at 330 nm; [Q] = Concentration of drug; εex and εem = Excitation and emission extinction coefficients, respectively; bex and bem = Path lengths of excitation (0.4 mm) and emission (10 mm) wavelengths, respectively; and B = Background fluorescence measured from drug and solvent.
# The resulting quenching curves were fit using a modified Stern-Volmer equation (Equation (3)), as follows:(3) Fcorrected=FOcorrected/1+KsvQ+Funquenched where Fcorrected = The corrected fluorescence; F0(corrected) = Fluorescence recorded in the absence of drug; [Q] = Concentration of drug; Ksv = Stern–Volmer constant; and F(unquenched) = unquenched fluorescence.
# [4] = system: Pgp mutants F336A and I340A; conditions: cited from earlier work
# T1 sequence (P21447 whole entry): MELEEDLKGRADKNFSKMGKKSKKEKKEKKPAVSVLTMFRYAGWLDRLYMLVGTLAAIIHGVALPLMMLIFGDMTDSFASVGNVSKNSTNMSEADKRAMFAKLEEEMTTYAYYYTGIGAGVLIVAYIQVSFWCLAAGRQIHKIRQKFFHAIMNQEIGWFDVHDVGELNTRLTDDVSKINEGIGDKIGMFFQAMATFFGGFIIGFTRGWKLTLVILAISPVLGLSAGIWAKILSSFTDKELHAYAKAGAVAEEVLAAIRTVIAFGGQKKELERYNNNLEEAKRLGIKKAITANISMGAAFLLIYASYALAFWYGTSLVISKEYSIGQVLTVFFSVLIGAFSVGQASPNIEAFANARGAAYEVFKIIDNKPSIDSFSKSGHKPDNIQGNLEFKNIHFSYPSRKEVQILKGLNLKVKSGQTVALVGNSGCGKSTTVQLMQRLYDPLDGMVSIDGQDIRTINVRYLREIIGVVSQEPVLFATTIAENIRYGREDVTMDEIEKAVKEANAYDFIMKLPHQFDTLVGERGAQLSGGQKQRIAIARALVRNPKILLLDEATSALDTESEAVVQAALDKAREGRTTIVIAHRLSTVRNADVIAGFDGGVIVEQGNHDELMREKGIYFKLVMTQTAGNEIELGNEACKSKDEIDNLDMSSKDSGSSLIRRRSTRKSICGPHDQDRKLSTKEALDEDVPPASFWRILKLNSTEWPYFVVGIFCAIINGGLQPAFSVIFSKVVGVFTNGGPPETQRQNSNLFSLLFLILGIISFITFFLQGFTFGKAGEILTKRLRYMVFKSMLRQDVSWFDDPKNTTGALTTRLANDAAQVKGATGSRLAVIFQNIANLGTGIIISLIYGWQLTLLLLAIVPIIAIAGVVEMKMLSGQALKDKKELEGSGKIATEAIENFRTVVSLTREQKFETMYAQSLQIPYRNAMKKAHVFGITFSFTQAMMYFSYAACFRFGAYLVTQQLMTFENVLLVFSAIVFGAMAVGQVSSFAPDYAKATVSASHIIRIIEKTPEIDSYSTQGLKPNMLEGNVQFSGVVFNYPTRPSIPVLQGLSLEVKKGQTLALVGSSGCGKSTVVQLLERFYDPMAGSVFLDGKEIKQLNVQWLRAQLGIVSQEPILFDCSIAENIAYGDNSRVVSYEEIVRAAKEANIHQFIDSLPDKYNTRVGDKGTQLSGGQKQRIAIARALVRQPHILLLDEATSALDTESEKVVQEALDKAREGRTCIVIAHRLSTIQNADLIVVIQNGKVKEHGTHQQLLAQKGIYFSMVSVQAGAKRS
structure (smiles),measurement,setting,value
"C[C@]12CC[C@H](O)C[C@H]1CC[C@@H]1[C@@H]2CC[C@]2(C)[C@@H](C3=CC(=O)OC3)CC[C@]12O [Digitoxigenin, (3β,5β)-3,14-Dihydroxy-card-20(22)-enolide]",Km,[1],67.6 ± 19.8 µM
same,Intracellular accumulation in Pgp-overexpressing cells,[2],no significant difference
"C[C@]12CC[C@H](O)C[C@H]1CC[C@@H]1[C@@H]2C[C@@H](O)[C@]2(C)[C@@H](C3=CC(=O)OC3)CC[C@]12O [Digoxigenin, 3β,12β,14-Trihydroxy-5β,20(22)-cardenolide]",Kd,[3],10.16 ± 0.01 µM
C[C@H]1O[C@@H](O[C@H]2[C@@H](O)C[C@H](O[C@H]3[C@@H](O)C[C@H](O[C@H]4CC[C@@]5(C)[C@H](CC[C@@H]6[C@@H]5C[C@@H](O)[C@]5(C)[C@@H](C7=CC(=O)OC7)CC[C@]65O)C4)O[C@@H]3C)O[C@@H]2C)C[C@H](O)[C@@H]1O [Digoxin],Decrease of digoxin-Pgp interaction for mutants compared to wild-type Pgp,[4],two- to four-fold
